Source: paper PMC10191619, “Bilirubin gates the TRPM2 channel as a direct agonist to exacerbate ischemic brain damage” (Neuron, 2023)

Legend:
[1] = Serum and CSF TB / UCB measurement after bilirubin injection and tMCAO; assay type: in vivo, mouse
Procedure: Trpm2^+/+, Trpm2^-/- and D1066A C57BL/6 mice were anesthetized by intraperitoneal injection of pentobarbital (55 mg/kg) 24 hours before tMCAO operation, and then fixed in the stereotactic setup (RWD Life Science). The skin above the skull from the base of the neck up to in between the eyes was cut open. A hole directly above the right ventricle was made with a grinding drill to allow insertion of the micro syringe into the lateral ventricle (coordinates: 1.1 mm laterally to the right and 0.5 mm posterior of the bregma, 2.5 mm deep). CSF was collected by using the micro injection pump (speed: 0.2 μl/min), after which the syringe was withdrawn, and the skin was sutured. The mice were removed from the stereotactic setup and 50 μl blood was taken through the orbital venous plexus. Mice were then placed on 37 °C heating blanket till they regained consciousness and returned to the cage. 1 or 24 hours after tMCAO, animals were anesthetized using a 2% isoflurane-oxygen mixture. CSF and blood were collected in the same way before sacrifice. All samples were centrifuged at 3000 r/min. Total bilirubin concentration of supernatants was measured with the Bilirubin Reagent Kit (Sigma). Samples were transferred to a 96-plates and mixed with reaction solution before measurements of their absorbance were made at 530 nm 10 minutes later. UCB concentration was measured with UnaG, a bilirubin-inducible fluorescent protein from Japanese eel muscle. For standard calibration curve of fluorescence intensity, a 100 μl reaction mixture containing 50 μl UnaG solution (1 μM) and 50 μl artificial bilirubin solution with concentration gradient (1.4278 μM, 0.7139 μM, 0.3573 μM, 0.1785 μM, 0.0893 μM and 0 μM) was prepared. After 10 minutes of reaction, the fluorescence intensity was detected by microplate reader (Synergy H1M, Bio Tek) with fluorescence filters for excitation and emission wavelengths of 485 and 528 nm, respectively. Serum and CSF samples were diluted 20-fold with PBS and fluorescence intensity was measured. The UCB levels were extrapolated from the standard curve.

[2] = target: T1, human TRPM2 (hTRPM2) channel (Homo sapiens, UniProt O94759); test: Whole-cell patch-clamp of TRPM2 currents (voltage ramps) in HEK-hTRPM2 cells; assay type: cell-based
T1 construct: expressed in transfected cells; host or cells: HEK293 cells with tetracycline-inducible expression of hTRPM2 (HEK-hTRPM2)
T1 sequence (O94759 whole entry): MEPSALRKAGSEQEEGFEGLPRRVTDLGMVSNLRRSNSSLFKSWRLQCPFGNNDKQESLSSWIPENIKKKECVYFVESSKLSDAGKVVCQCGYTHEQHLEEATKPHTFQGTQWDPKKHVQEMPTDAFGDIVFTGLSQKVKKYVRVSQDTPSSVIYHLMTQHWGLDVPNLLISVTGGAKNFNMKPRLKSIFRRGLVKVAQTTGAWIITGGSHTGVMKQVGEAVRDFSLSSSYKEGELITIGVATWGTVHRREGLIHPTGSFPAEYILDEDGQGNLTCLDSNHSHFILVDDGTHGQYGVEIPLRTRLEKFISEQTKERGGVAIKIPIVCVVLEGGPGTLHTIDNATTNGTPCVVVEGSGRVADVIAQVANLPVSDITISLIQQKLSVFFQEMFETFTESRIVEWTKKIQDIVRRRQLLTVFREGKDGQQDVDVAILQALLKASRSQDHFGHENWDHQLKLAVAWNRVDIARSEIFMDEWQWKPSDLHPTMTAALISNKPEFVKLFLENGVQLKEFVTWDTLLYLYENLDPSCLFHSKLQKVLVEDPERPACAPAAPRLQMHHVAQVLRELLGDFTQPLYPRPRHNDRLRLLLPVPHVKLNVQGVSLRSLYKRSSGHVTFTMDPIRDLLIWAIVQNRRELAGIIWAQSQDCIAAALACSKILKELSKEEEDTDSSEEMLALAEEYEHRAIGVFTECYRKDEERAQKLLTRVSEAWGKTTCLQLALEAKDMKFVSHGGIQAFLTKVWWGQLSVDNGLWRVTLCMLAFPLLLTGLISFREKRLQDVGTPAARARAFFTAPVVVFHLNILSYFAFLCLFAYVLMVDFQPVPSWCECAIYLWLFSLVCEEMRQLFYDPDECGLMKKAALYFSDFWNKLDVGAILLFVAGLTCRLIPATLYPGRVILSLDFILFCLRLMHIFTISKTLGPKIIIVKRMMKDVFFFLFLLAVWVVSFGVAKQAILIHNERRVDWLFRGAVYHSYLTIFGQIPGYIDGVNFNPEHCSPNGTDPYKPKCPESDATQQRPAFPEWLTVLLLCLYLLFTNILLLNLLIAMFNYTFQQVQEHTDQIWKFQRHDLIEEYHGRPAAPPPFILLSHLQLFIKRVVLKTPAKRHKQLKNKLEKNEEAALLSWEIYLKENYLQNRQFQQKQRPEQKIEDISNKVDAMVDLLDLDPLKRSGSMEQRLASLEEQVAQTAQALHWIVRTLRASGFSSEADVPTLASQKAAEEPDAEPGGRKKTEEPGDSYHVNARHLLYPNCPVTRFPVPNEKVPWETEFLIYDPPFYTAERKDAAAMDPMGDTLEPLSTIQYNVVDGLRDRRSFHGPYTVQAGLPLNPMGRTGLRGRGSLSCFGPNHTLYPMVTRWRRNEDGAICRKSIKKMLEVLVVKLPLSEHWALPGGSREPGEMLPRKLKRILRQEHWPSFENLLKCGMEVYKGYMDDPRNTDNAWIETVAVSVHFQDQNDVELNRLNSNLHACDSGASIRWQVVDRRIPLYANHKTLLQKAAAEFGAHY
Procedure: (§1) Human embryonic kidney 293 (HEK293) cells with tetracycline-inducible expression of human TRPM2 channel (hTRPM2) were cultured in a mixed medium containing DMEM/ F-12 (Gibco, USA) and 10% fetal bovine serum (Gibco, USA) as well as blasticidin (50 μg/ml, Invivogen, USA) and zeocin (0.4 mg/ml, Invivogen, USA). The expression of hTRPM2 was induced by substituting blasticin and zeocin for tetracycline (1 μg/ml, Sigma, USA) 24-48 hours before use. TRPM2 channel mutants were transiently expressed in HEK293T cells by transfection with using Lipofectamine 3000. Briefly, HEK293T cells were transiently transfected with cDNAs encoding the mutant hTRPM2 channel. The cDNA for GFP was co-transfected as a marker for identification of the transfected cells for electrophysiological experiments 16-24 hours after transfection. All the cells were seeded on 96-well coverslips (3 x 3 mm, WHB) and cultured at 37 °C under a humidified atmosphere containing 5% CO2.
Coronal cortical slices were transferred into the recording chamber and continuously perfused at room temperature with ACSF oxygenated with 95% O2 and 5% CO2. Cortical pyramidal neurons were visualized by an upright microscope (Carl Zeiss) equipped with a CCD monochrome video camera (IR-1000, DAGE-MTI) and identified by their localization in Layer V. Electrophysiology data were sampled (50 kHz) and lowpass filtered (5kHz four-pole Bessel filter) by a MultiClamp 700B dual channel amplifier (Molecular Devices). The patch electrodes were pulled from borosilicate capillary glass (1.5 mm outer diameter; 0.86 mm inner diameter; World Precision Instruments, USA) with a horizontal multi-step micropipette puller (Model, P-1000, Sutter Instrument). […] After forming >1 GΩ resistance seal in cell-attached configuration, we broke the patch membrane and kept the neurons at -64 mV and then performed whole-cell current-clamp recordings. Cells requiring holding current > -150 pA at -60 mV were discarded. The resting membrane potential (Vrest) was tested in I = 0 configuration. Intrinsic excitability was tested by 500 ms long current steps between -200 and +400 pA with 50-pA increments in the presence of blockers for AMPA, NMDA, and GABA receptors (APV, 50 μM; NBQX, 10 μM; bicuculine 10 μM, strychnine 1 μM). Only one recording was conducted per brain slice. For whole-cell or single channel recordings from transfected HEK-293T cells, the coverslips were placed in a culture dish (35 × 35 mm, Sorfa) containing HEPES based extracellular solution (ECS) and recorded by patch-clamp technique. Cells were visualized by using the phase-contrast mode of an inverted microscope (TE-2000U; Nikon, Japan) and the patch pipette was positioned on the cells using a motorized micromanipulator (MP-225; Sutter) under the microscope. The transfected cells were voltage-clamped at 0 mV and subjected to voltage ramps from -100 mV to +100 mV (500 ms duration) every 5 s. The basal ramp current (i.e., the trace when the leak current is stable after membrane rupture) before channel activation were used for leak subtraction of all subsequent ramp currents. Each coverslip was recorded only once with different drug exposures. Single-channel recordings were carried out under outside-out configuration, using pipettes with resistance of 6-8 MΩ. The excised patches were voltage-clamped from -80 mV to +80 mV (in 20 mV increasement) to generate the current-voltage (I-V) relationship of single channel currents from which their main conductance was calculated from the slope by linear regression of the mean current amplitude at different potentials. Single-channel recordings of the cortical neurons were performed by adding 4-AP, TEA-Cl, CsCl2 and TTX to block sodium channel, potassium channel and calcium channel.
The cutting solution for brain slices contained the following (in mM): 87 NaCl, 75 sucrose, 2.5 KCl, 10 glucose, 1.25 NaH2PO4, 2 Na-pyruvate, 3 myo-inositol, 0.5 ascorbic acid, 26 NaHCO3,7 MgCl2, and 0.1 CaCl2 (pH 7.4; 290-320 mOsm).

[3] = tested on: layer 5 cortical pyramidal neurons from adult Trpm2−/− mice; test: Whole-cell current-clamp, intrinsic excitability in brain slices, Trpm2-/-; assay type: cell-based, mouse
[4] = target: T1, human TRPM2 (hTRPM2) channel; test: Single-channel outside-out recordings from HEK-hTRPM2 cells; assay type: cell-based
Procedure: as §1
Coronal cortical slices were transferred into the recording chamber and continuously perfused at room temperature with ACSF oxygenated with 95% O2 and 5% CO2. Cortical pyramidal neurons were visualized by an upright microscope (Carl Zeiss) equipped with a CCD monochrome video camera (IR-1000, DAGE-MTI) and identified by their localization in Layer V. Electrophysiology data were sampled (50 kHz) and lowpass filtered (5kHz four-pole Bessel filter) by a MultiClamp 700B dual channel amplifier (Molecular Devices). The patch electrodes were pulled from borosilicate capillary glass (1.5 mm outer diameter; 0.86 mm inner diameter; World Precision Instruments, USA) with a horizontal multi-step micropipette puller (Model, P-1000, Sutter Instrument). […] After forming >1 GΩ resistance seal in cell-attached configuration, we broke the patch membrane and kept the neurons at -64 mV and then performed whole-cell current-clamp recordings. Cells requiring holding current > -150 pA at -60 mV were discarded. The resting membrane potential (Vrest) was tested in I = 0 configuration. […] For whole-cell or single channel recordings from transfected HEK-293T cells, the coverslips were placed in a culture dish (35 × 35 mm, Sorfa) containing HEPES based extracellular solution (ECS) and recorded by patch-clamp technique. […] Each coverslip was recorded only once with different drug exposures. […] The excised patches were voltage-clamped from -80 mV to +80 mV (in 20 mV increasement) to generate the current-voltage (I-V) relationship of single channel currents from which their main conductance was calculated from the slope by linear regression of the mean current amplitude at different potentials. […]

[5] = target: T2, hTRPM2 K928A/D1069A double mutant (Homo sapiens, UniProt O94759, D1069A/K928A); test: Whole-cell patch-clamp, bilirubin-binding cavity double mutant; assay type: cell-based; conditions: 9 μM extracellular
T2 construct: expressed in transfected cells; host or cells: HEK293T cells, transient transfection, GFP cDNA co-transfected as a separate marker
T2 sequence (O94759 whole entry K928A/D1069A): as the sequence (O94759 whole entry) above, with K928A, D1069A counted along it
Procedure: as §1, with “All the cells were seeded on 96-well coverslips (3 x 3 mm, WHB) and cultured at 37 °C under a humidified atmosphere containing 5% CO2.” left out
Coronal cortical slices were transferred into the recording chamber and continuously perfused at room temperature with ACSF oxygenated with 95% O2 and 5% CO2. […] For whole-cell or single channel recordings from transfected HEK-293T cells, the coverslips were placed in a culture dish (35 × 35 mm, Sorfa) containing HEPES based extracellular solution (ECS) and recorded by patch-clamp technique. […] Each coverslip was recorded only once with different drug exposures. […]

[6] = tested on: cortical pyramidal neurons from D1066A KI mice; test: Whole-cell current-clamp, intrinsic excitability in brain slices, D1066A KI; assay type: cell-based, mouse; conditions: prolonged perfusion time
[7] = tested on: hTRPM2 Ca2+ binding site mutants; test: Whole-cell patch-clamp, Ca2+ binding site mutants; assay type: cell-based, human; conditions: mutations disabling binding sites for Ca2+

## C=CC1=C(C)/C(=C/c2[nH]c(Cc3[nH]c(/C=C4\NC(=O)C(C)=C4C=C)c(C)c3CCC(=O)O)c(CCC(=O)O)c2C)NC1=O [bilirubin, Bilirubin]
[1]; Trpm2−/− mice, 24 h after tMCAO
  level of UCB, Bil group vs Ctrl group: did not change
[1]; mice injected with bilirubin 50 μg/g i.p., after tMCAO
  TB levels in serum and CSF vs saline: markedly higher
[2]; bilirubin 9 μM, −100 to +100 mV, control solution
  magnitude of the TRPM2 currents evoked by voltage ramps: increased
[2]; bilirubin in the presence of PJ-34 (10 μM)
  activation of TRPM2 currents: remained effective
[2]; bilirubin, intracellular ADPR 5 μM (subthreshold)
  TRPM2 currents: increased TRPM2 currents
[2]; bilirubin, intracellular ADPR 500 μM (saturated)
  TRPM2 currents: failed to do so
[2]; bilirubin, intracellular BAPTA 30 mM replacing EGTA
  activation of the TRPM2 channel: remained capable of activating
[2]; concentration-response fit with the Hill equation, n = 4
  Hillslope: 1.0
[2]; concentration-response fit with the Hill equation, n = 4, read-out: EC50 for evoked TRPM2 currents
  EC50: 1.92 µM
[3]; Trpm2−/− slices, bilirubin for 5 and 20 min, synaptic blockers present
  excitability of cortical neurons: absent
[3]; Trpm2−/−, 20 min after bilirubin application, 2.5 nA current in 0.3 ms
  spike amplitude: significantly attenuated
[4]; bilirubin 300 nM, at −40 mV, outside-out
  single-channel currents: −2.02 ± 0.05 pA
[4]; bilirubin perfusion, n = 12
  opening probability (Po): significantly increased
[4]; bilirubin-driven current-voltage relationship, −80 to +80 mV, n = 4–7
  slope conductance (single-channel): 76.29 ± 7.85 pS
[5]
  activation of mutant TRPM2 currents: completely lost its ability to activate
[6]
  hyperexcitability in cortical pyramidal neurons: did not induce the hyperexcitability
[7]
  activation of TRPM2 currents by bilirubin: did not prevent the activation
